In paper PMC8395285, “Novel 2-(Adamantan-1-ylamino)Thiazol-4(5H)-One Derivatives and Their Inhibitory Activity towards 11β-HSD1—Synthesis, Molecular Docking and In Vitro Studies” (International Journal of Molecular Sciences, 2021):

Key:
11β-HSD1 = target: T1, 11β-HSD1 (Homo sapiens, UniProt P28845); test: Inhibition of 11β-HSD1 (cortisone to cortisol, human liver microsomes, cortisol ELISA); type: biochemical; conditions: for inhibition at 10 µM: 10 µM compound, 2.5 h at 37 °C; for IC50: concentrations 0.625-10.0 µM, read from the chart
T1 construct: Human liver microsomes were used as a source of 11β-HSD1 enzyme; tissue XenoTech Lot No.1410013; host or cells: pooled human liver microsomes, mixed gender
T1 sequence (P28845 whole entry): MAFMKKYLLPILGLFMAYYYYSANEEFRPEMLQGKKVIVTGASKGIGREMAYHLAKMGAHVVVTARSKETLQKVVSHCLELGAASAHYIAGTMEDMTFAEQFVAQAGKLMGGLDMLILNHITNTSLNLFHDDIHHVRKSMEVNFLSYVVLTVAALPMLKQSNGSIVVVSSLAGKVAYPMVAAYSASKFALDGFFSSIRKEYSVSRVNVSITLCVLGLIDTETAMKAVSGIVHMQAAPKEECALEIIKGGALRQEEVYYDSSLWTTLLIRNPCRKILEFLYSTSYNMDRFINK
Procedure: To stop the reaction, 10 µL of a 100 µM solution of 18β-glycyrrhetinic acid in PBS was added. The level of cortisol obtained in the reaction was measured by commercially available ELISA kit.
(§1) As a control, analogous tests without the addition of inhibitors were used. Half the inhibitory concentration (causing 50% reduction of cortisol or cortisone) was read from the chart.

11β-HSD2 = target: T2, 11β-HSD2 (Homo sapiens, UniProt P80365); test: Inhibition of 11β-HSD2 (cortisol to cortisone, human microsomes, cortisol ELISA); type: biochemical; conditions: 10 µM compound, 2.5 h at 37 °C
T2 construct: Human liver microsomes were used as a source of 11β-HSD2 enzyme; tissue XenoTech Lot No. 1710160; host or cells: human kidney microsomes, mixed gender (the method paragraph says human liver microsomes)
T2 sequence (P80365 1-405): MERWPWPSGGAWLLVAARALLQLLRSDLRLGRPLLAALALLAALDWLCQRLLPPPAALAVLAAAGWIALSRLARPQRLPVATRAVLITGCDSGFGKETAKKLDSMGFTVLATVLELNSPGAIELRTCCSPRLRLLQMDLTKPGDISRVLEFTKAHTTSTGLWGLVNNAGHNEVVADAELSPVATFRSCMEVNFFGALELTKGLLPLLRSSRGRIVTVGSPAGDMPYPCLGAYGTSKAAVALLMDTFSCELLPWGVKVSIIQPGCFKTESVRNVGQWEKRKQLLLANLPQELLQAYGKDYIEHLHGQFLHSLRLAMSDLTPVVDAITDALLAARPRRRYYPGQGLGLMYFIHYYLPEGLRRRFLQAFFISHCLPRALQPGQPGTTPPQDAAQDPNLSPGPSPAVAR
Procedure: […] […] The level of unreacted cortisol was measured by commercially available ELISA kit.
as §1

inhibition at 10 µM (11β-HSD1)	IC50 (11β-HSD1)	inhibition at 10 µM (11β-HSD2)	melting point	SMILES
62.1 ± 3.59%	3.52 ± 0.19 µM	44.7 ± 4.19%	265 to 267 °C	CC1SC(NC23CC4CC(CC(C4)C2)C3)=NC1=O (stereo not drawn) [3b, 2-(adamantan-1-ylamino)-5-methylthiazol-4(5H)-one]
46.3 ± 5.53%	> 10 µM	18.3 ± 3.18%	–	O=C1N=C(NC23CC4CC(CC(C4)C2)C3)SC1c1ccccc1 (stereo not drawn) [3g, 2-(adamantan-1-ylamino)-5-phenylthiazol-4(5H)-one]
15.3 ± 0.49%	> 10 µM	41.8 ± 6.12%	–	O=C1N=C(NC23CC4CC(CC(C4)C2)C3)SC1c1ccc(Br)cc1 (stereo not drawn) [3h, 2-(adamantan-1-ylamino)-5-(4-bromophenyl)thiazol-4(5H)-one]
74.1 ± 2.85%	3.32 ± 0.24 µM	41.4 ± 4.22%	265 to 266 °C	O=C1N=C(NC23CC4CC(CC(C4)C2)C3)SC12CCC2 [3j, 6-(adamantan-1-ylamino)-5-thia-7-azaspiro[3.4]oct-6-en-8-one]
84.8 ± 6.23%	–	–	–	CC1(C)[C@@H](OC(=O)CCC(=O)O)CC[C@]2(C)[C@H]3C(=O)C=C4[C@@H]5C[C@@](C)(C(=O)O)CC[C@]5(C)CC[C@@]4(C)[C@]3(C)CC[C@@H]12 [carbenoxolone, reference compound]

Second part, the compound before the results:

SMILES	inhibition at 10 µM (11β-HSD1)	IC50 (11β-HSD1)	inhibition at 10 µM (11β-HSD2)	melting point
O=C1CSC(NC23CC4CC(CC(C4)C2)C3)=N1 [3a, 2-(adamantan-1-ylamino)thiazol-4(5H)-one]	22.3 ± 5.31%	> 10 µM	29.8 ± 4.21%	271 to 273 °C
CCC1SC(NC23CC4CC(CC(C4)C2)C3)=NC1=O (stereo not drawn) [3c, 2-(adamantan-1-ylamino)-5-ethylthiazol-4(5H)-one]	69.2 ± 5.12%	5.44 ± 0.32 µM	14.4 ± 1.16%	257 to 259 °C
CCCC1SC(NC23CC4CC(CC(C4)C2)C3)=NC1=O (stereo not drawn) [3d, 2-(adamantan-1-ylamino)-5-propylthiazol-4(5H)-one]	72.4 ± 2.63%	3.23 ± 0.26 µM	28.9 ± 4.11%	247 to 249 °C
CC(C)C1SC(NC23CC4CC(CC(C4)C2)C3)=NC1=O (stereo not drawn) [3e, 2-(adamantan-1-ylamino)-5-isopropylthiazol-4(5H)-one]	76.4 ± 2.55%	1.19 ± 0.21 µM	16.4 ± 2.06%	239 to 241 °C
CC1(C)SC(NC23CC4CC(CC(C4)C2)C3)=NC1=O [3f, 2-(adamantan-1-ylamino)-5,5-dimethylthiazol-4(5H)-one]	66 ± 1.12%	6.11 ± 0.62 µM	24.5 ± 3.24%	208 to 210 °C
O=C1N=C(NC23CC4CC(CC(C4)C2)C3)SC12CCCCC2 [3i, 2-(adamantan-1-ylamino)-1-thia-3-azaspiro [4.5]dec-2-en-4-one]	82.8 ± 2.05%	0.31 ± 0.05 µM	> 44%	268 to 270 °C
